Measurements: patent US8785483B2, “Methods for treating COPD” (The Board of Regents of the University of Texas System, priority 2010, dated 2014)

Key:
[1] = test system: SAEC; experiment: Cytokines, chemokines and growth factors by Milliplex in SAEC culture media after CSE; assay type: cell-based, human; settings: 24 h after CSE (50%)
Description: FIG. 2. CSE-induced changes in cytokine levels in SAEC prevented by aldose reductase (AR) inhibition. *p<0.01 Vs Control; **p<0.05 Vs CSE 50%; #p<0.001 Vs Control; ##p<0.01 Vs CSE 50% Primary human Small Airway Epithelial Cells (SAEC) obtained from Lonza (Walkersville, Md.) were normal human SAEC harvested from distal airspace of donor. The cells were cultured according to the supplier's instructions at 37° C. in humidified atmosphere containing 95% air and 5% CO2 in small airway epithelial basal medium (SABM) with supplements containing 52 μg/ml bovine pituitary extract, 0.5 ng/ml human recombinant epidermal growth factor (EGF), 0.5 μg/ml epinephrine, 1 μg/ml hydrocortisone, 10 μg/ml transferrin, 5 μg/ml insulin, 0.1 ng/ml retinoic acid (RA), 6.5 ng/ml triiodothyronine, 50 μg/ml Gentamicin/Amphotericin-B (GA-1000), and 50 μg/ml fatty acid-free bovine serum albumin (BSA). Research-grade cigarettes (1R3F) with a filter from the Kentucky Tobacco Research and Development Center at the University of Kentucky (Lexington, Ky.) were smoked to 0.5 cm above the filter in a fume hood, using a modification of the method developed by Carp and Janoff (Am Rev Respir Dis. 1978; 118(3):617-621). […] The levels of cytokines and chemokines in the supernatant were determined by Milliplex MAP kits according to the manufacturer's instructions (Millipore Corporation, Bellerica, Mass.)).

[2] = test system: Muc5B; experiment: Western blot of Muc5B in IL-13-treated SAEC monolayer; assay type: cell-based, human; settings: IL-13 48 h, immunoblotting
Description: FIGS. 6A-6B. AR inhibition prevents IL-13-induced expression of Mucin and transcription factor SPDEF in airway epithelial cell monolayer. (A) The airway epithelial cell monolayer at ALI was serum starved without or with fidarestat and incubated with IL-13 for 18 h. Total RNA was isolated and subsequently RT-PCR was performed to assess the expression of Muc5AC and SPDEF. The bar diagrams show densitometric analysis of the corresponding blots (n=4). *p<0.001 vs Control; **p<0.001 vs IL-13; (B) The monolayer of ciliated airway cells at ALI was treated with AR inhibitor for 24 h and subsequently incubated with IL-13 for 24 or 48 h. At the end of incubation, cell lysate was prepared and subjected to western blotting using antibodies against Muc5AC, Muc5B, and SPDEF. The membranes were stripped and re-probed with antibodies against GAPDH to show the equal loading of protein. A representative blot is shown (n=4). *p<0.0001 vs Control; **p<0.001 vs IL-13. […] Protein levels were determined using Bradford reagent (Biorad, Hercules, Calif.). […] The blots were then washed, exposed to HRP-conjugated secondary antibodies (1:5,000 dilution) for 1 h, and the antigen-antibody complex was detected by enhanced chemiluminescence (Amersham Pharmacia Biotech, Piscataway, N.J., USA). […]

NC(=O)[C@@H]1C[C@]2(NC(=O)NC2=O)c2cc(F)ccc2O1 [fidarestat, (2S,4S)-2-aminoformyl-6-fluoro-spiro[chroman-4,4′-imidazolidine]-2′,5′-dione]
prevention of CSE-induced increase in chemokines (G-CSF, MCP-1, GM-CSF, IP-10) and growth factors (TGF-α, VEGF) [1]: more than 50% | prevention of CSE-induced increase in cytokines (IL-1a, IL-8, TNF-α) [1]: significantly (p<0.05 and 0.01) prevented | prevention of IL-13-induced increase in Muc5B protein [2]: ~50%
